From publication PMC7610391, “Photocatalytic proximity labelling of MCL-1 by a BH3 ligand” (Communications chemistry, 2019)
“Also recorded” adds a separate entry of the source.

Columns and labels:
[1] = target: T1, MCL-1/FITC-NOXA-B interaction (Homo sapiens, UniProt Q07820); assay: Fluorescence anisotropy competition, MCL-1/FITC-NOXA-B; type: biochemical; conditions: [MCL-1] 75 nM, tracer FITC-NOXA-B 25 nM, Tris buffer pH 7.4, triplicate; printed as ≫; read-out: IC50 against MCL-1
T1 construct: Recombinant MCL-1_172–327 was expressed and purified as published previously; made in house

[2] = target: T2, BCL-XL (Homo sapiens, UniProt Q07817, DEL27-82); assay: Photolabelling of BCL-xL with Ac-RTA 4, ESI-MS; conditions: pH 7.4
T2 construct: made in house

[3] = target: T3, MCL-1 (Homo sapiens, UniProt Q07820); assay: Photolabelling of recombinant MCL-1, ESI-MS
T3 construct: Recombinant MCL-1_172–327 was expressed and purified as published previously; made in house

[4] = target: T3, MCL-1; assay: Pull-down of biotinylated MCL-1 with avidin-agarose beads; conditions: 20, 10 µM biotin-RTA 3, or 100 µM with excess label removed
Procedure: Pull-down of biotinylated MCL-1
The crude labelling mixture was incubated with avadin-agarose beads (50 µL) at r.t. for 2 hours with gentle agitation (input lanes 1-4 and their respective pull-down lanes 6-9). Note that for input lane 5/pull-down lane 10, excess biotin-RTA 3 was removed from the crude labelling mixture using a protein concentrator (10 kDa MWCO) prior to incubation with avidin-agarose beads. Following removal of the supernatant, the beads were washed twice with PBS (100 µL), then boiled at 90 °C for 10 mins in sample loading buffer to elute bound proteins. Samples were separated by SDS-PAGE: the gel (15% acrylamide) was run at a constant voltage of 180 V for 45 min, then the gel was stained with Coomassie Brilliant Blue (CBB) and the image obtained on a Molecular Imager ChemiDoc XRS.
Supplementary Figure 19: Isolation of biotinylated MCL-1 from crude labelling mixture through pull-down with avadin-agarose beads (CBB stained gel). Conditions: 5 µM MCL-1, 0-100 µM biotin-RTA 3, 1 µM Ru(II)(bpy)3-NOXA-B, 10 µM APS, 1 min irradiation, 50 mM […]
3 was used (lanes 7 and 8, respectively), in addition to when 100 µM biotin-RTA 3 was used and the excess label 3 was removed using a protein concentrator (lane 10). 50 µL avidin-agarose beads was used in pull-down experiments.

[5] = target: T3, MCL-1; assay: Competition of Ru(II)(bpy)3-NOXA-B 1-mediated MCL-1 photolabelling, in-gel fluorescence; type: biochemical; conditions: 0-100 µM competitor; 5 µM MCL-1, 5 µM TAMRA-RTA 2, 1 µM 1, 10 µM APS, 1 min hν

T3 sequence (Q07820 172-327): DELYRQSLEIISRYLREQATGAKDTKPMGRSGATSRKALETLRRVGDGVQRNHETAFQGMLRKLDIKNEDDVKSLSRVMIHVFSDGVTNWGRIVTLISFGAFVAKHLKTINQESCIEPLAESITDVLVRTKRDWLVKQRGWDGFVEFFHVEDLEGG
T2 sequence (Q07817 with tags, fused parts or gaps DEL27-82, species assumed): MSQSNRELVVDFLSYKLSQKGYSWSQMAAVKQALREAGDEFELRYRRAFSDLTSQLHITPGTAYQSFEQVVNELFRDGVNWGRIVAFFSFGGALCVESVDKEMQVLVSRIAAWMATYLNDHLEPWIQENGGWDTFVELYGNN
T1 sequence (Q07820 172-327): as the sequence (Q07820 172-327) above

6b: variant Ac-BID sequence with key hot-spot residues exchanged (L90A and D95R) (EDIIRNIARHAAQVGRSXDRSIW; N-terminal acetyl; C-terminal amide; X18 = norleucine (Nle))
IC50 [1]: > 50 µM

[Ru+2].c1ccc(-c2ccccn2)nc1.c1ccc(-c2ccccn2)nc1.c1ccc(-c2ccccn2)nc1 [Ru(II)(bpy)3]
effect of photocatalyst concentration on BCL-xL labelling [2]: increased at higher concentrations of Ru(II)(bpy)3 | labelling of BCL-xL with Ac-RTA 4 [2]: small amounts of BCL-xL could be labelled | photolabelling efficiency of MCL-1 versus targeted catalyst 1 ([3]; 20 mol% Ru(II)(bpy)3, 50 μM Ac-RTA 4, 10 μM APS, 1 min irradiation, pH 7.4): labelling was less efficient

CN(C)c1ccc(NC(=O)CCCCCNC(=O)CCCCC2SCC3NC(=O)NC32)cc1 (stereo not drawn) [compound 3]
background labelling with biotin-RTA 3 in the absence of 1 ([3]; 0 µM 1, 5 μM MCL-1, 5 µM biotin-RTA 3, 10 µM APS, 1 min hν): absence of background labelling | number of labels incorporated on MCL-1 ([3]; Ru(II)(bpy)3-NOXA-B 1-mediated, intact protein ESI-MS): single biotin labelling of MCL-1 | oxidation at irradiation times greater than 1 min ([3]; biotin-RTA 3 5 µM, 1 µM 1, 10 µM APS, 15 mins irradiation shown): higher conversion to oxidised protein species | affinity purification of biotinylated MCL-1 [4]: Biotinylated MCL-1 was pulled-down; also recorded: could be affinity-purified with avidin-agarose beads

CC[C@H](C)[C@H](NC(=O)[C@H](CCCNC(=N)N)NC(=O)[C@H](CCCNC(=N)N)NC(=O)[C@H](CC(C)C)NC(=O)[C@H](CCC(N)=O)NC(=O)[C@H](C)NC(=O)[C@H](C)NC(C)=O)C(=O)NCC(=O)N[C@@H](CC(=O)O)C(=O)N[C@@H](CCCCN)C(=O)N[C@H](C(=O)N[C@@H](CC(N)=O)C(=O)N[C@@H](CC(C)C)C(=O)N[C@@H](CCCNC(=N)N)C(=O)N[C@@H](CCC(N)=O)C(=O)N[C@@H](CCCCN)C(=O)N[C@@H](CC(C)C)C(=O)N[C@@H](CC(C)C)C(=O)N[C@@H](CC(N)=O)C(N)=O)C(C)C [compound 5]
inhibition of MCL-1 labelling by Ac-NOXA-B [5]: did not completely abrogate labelling
